Test system: NIH/3T3 mouse fibroblasts
Assay: Elution cytotoxicity test
Format: cell-based
Protocol: Elution tests were performed on one sample of the pentablock material to assess the cytotoxic properties of the pentablock copolymers. Approximately 30 mg of the polymers to be tested were dissolved in 100 ml of low-glucose Dulbecco's modified eagle medium (DMEM, Sigma) with 10% fetal bovine serum (FBS, Sigma), 10 μg/ml insulin (Sigma), 10 units/ml penicillin/streptomycin (Sigma), and 100 μg/ml L-ascorbic acid (Sigma). This solution was diluted to achieve the desired polymer concentration for all tests.
NIH/3T3 mouse fibroblasts were grown in polystyrene flasks until reaching confluence at 150 cells/mm. The growth media was removed from the flasks and replaced with one of the following: DMEM (negative control), DMEM with phenol (positive control), DMEM with the pentablock material. The concentrations of the pentablock material and phenol were 3 mg/L, 0.3 mg/L and 0.03 mg/L.
After 24 hours of incubation in a humidified incubator with 5% CO2 at 37° C. the samples were removed and the media was replaced with Karnovsky's fixative (2.5% glutaraldehyde, 2.0% paraformaldehyde, 0.1M sodium cacodylate) for 12 hours. The samples were then stained with a 20% crystal violet dye (CVD) solution in ethanol for 6 hours followed by dehydration with ethanol. […]

For “PDEAEM-b-PEO-b-PPO-b-PEO-b-PDEAEM [pentablock copolymer]”, the “cell adhesion to polystyrene substrate and confluence after test period” value was “good adhesion to the polystyrene cell culture substrate and the cells remained confluent”.

Source: patent publication US7183369B1, “Injectible bodily prosthetics employing methacrylic copolymer gels” (Iowa State University Research Foundation, Inc., priority 2003, dated 2007)
